The supplement of paper PMC11208160

Assay: recombinant UMI read abundance after kanamycin selection (control-corrected) (log10(CPM+1)); higher = more efficient recombination; extreme values may be limits of the assay; sequences stand for … in AGTGCAGAGAAAATCGGCCAGTTTTCTCTGCCTGCAGTCCGCATGCCGTGGGACCCCTTGGGTTCTAACCTGTTGCCTAGATTTATGCAGCGGACTGCCTTTCTCCCAAAGTGATAAACCGG…AGGTTGGTTTCACT; site = the 11-nt donor
Method in brief: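 Sequencing read counts were converted to CPM, averaged over two replicates and scaled by control-derived factors. Results are given as log10(CPM+1). The reads covered the donor–target junction of recombinant UMIs from a pooled Escherichia coli screen of donor and donor-binding-loop pairs for the IS621 bridge recombinase.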
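Also: IS621 bridge recombinase in Escherichia coli cells against a fixed T5 target plasmid.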

| Sequence | recombinant UMI read abundance (log10) |
| --- | --- |
| GAAGCAACATGGACCGGTTTTCCCGGTAATCCGTATTTGCC (site GAAGCAACTGG) | 2.09 |
| GAAGCTTCATGGACCGGTTTTCCCGGTAATCCGTATTTGTT (site GAAGATTCTAA) | 0 |
| GAAGCTTCATGGACCGGTTTTCCCGGTAATCCGTATTTGTT (site GAAGCTTCTAA) | 1.74 |
| GAAGCTTCATGGACCGGTTTTCCCGGTAATCCGTATTTGTT (site GAAGGTTCTAA) | 0 |
| GAAGCTTCATGGACCGGTTTTCCCGGTAATCCGTATTTGTT (site GAAGTTTCTAA) | 0 |
| GAAGTATCATGGACCGGTTTTCCCGGTAATCCGTATTTGCA (site ACAGTATCTTG) | 1.54 |
| GAAGTATCATGGACCGGTTTTCCCGGTAATCCGTATTTGCA (site GAAGTATCTTG) | 2.6 |
| GAATATGCATGGACCGGTTTTCCCGGTAATCCGTATTTGAA (site GAATATGCTTT) | 2.09 |
| GAATCCGCATGGACCGGTTTTCCCGGTAATCCGTATTTGTC (site GAATCCGCTGA) | 2.15 |
| GAATCTACATGGACCGGTTTTCCCGGTAATCCGTATTTGCG (site GAATCTACTCG) | 1.04 |
| GAATGAGCATGGACCGGTTTTCCCGGTAATCCGTATTTGGA (site GAATGAGCTTC) | 1.28 |
| GAATGCCCATGGACCGGTTTTCCCGGTAATCCGTATTTGCA (site GAATGACCTTG) | 0 |
| GAATGCCCATGGACCGGTTTTCCCGGTAATCCGTATTTGCA (site GAATGCCCTTG) | 1.25 |
| GAATGCCCATGGACCGGTTTTCCCGGTAATCCGTATTTGCA (site GAATGGCCTTG) | 0 |
| GAATGCCCATGGACCGGTTTTCCCGGTAATCCGTATTTGCA (site GAATGTCCTTG) | 0 |
| GAATGTCCATGGACCGGTTTTCCCGGTAATCCGTATTTGCA (site GAATGACCTTG) | 0 |
| GAATGTCCATGGACCGGTTTTCCCGGTAATCCGTATTTGCA (site GAATGCCCTTG) | 0 |
| GAATGTCCATGGACCGGTTTTCCCGGTAATCCGTATTTGCA (site GAATGGCCTTG) | 0 |
| GAATGTCCATGGACCGGTTTTCCCGGTAATCCGTATTTGCA (site GAATGTCCTTG) | 1.28 |
| GAATTCCCATGGACCGGTTTTCCCGGTAATCCGTATTTGCT (site AAATTCCCTAG) | 0 |
| GAATTCCCATGGACCGGTTTTCCCGGTAATCCGTATTTGCT (site CAATTCCCTAG) | 0.484 |
| GAATTCCCATGGACCGGTTTTCCCGGTAATCCGTATTTGCT (site GAATTCCCTAG) | 0.671 |
| GAATTCCCATGGACCGGTTTTCCCGGTAATCCGTATTTGCT (site TAATTCCCTAG) | 0.902 |
| GACAAACCATGGACCGGTTTTCCCGGTAATCCGTATTTGGC (site GACAAACCTAC) | 0 |
| GACAAACCATGGACCGGTTTTCCCGGTAATCCGTATTTGGC (site GACAAACCTCC) | 0 |

| Sequence | recombinant UMI read abundance (log10) |
| --- | --- |
| GACAAACCATGGACCGGTTTTCCCGGTAATCCGTATTTGGC (site GACAAACCTGC) | 0 |
| GACAAACCATGGACCGGTTTTCCCGGTAATCCGTATTTGGC (site GACAAACCTTC) | 0 |
| GACAAAGCATGGACCGGTTTTCCCGGTAATCCGTATTTGGT (site GACAAAACTAC) | 0.00355 |
| GACAAAGCATGGACCGGTTTTCCCGGTAATCCGTATTTGGT (site GACAAACCTAC) | 0 |
| GACAAAGCATGGACCGGTTTTCCCGGTAATCCGTATTTGGT (site GACAAAGCTAC) | 1.13 |
| GACAAAGCATGGACCGGTTTTCCCGGTAATCCGTATTTGGT (site GACAAATCTAC) | 0 |
| GACAAGACATGGACCGGTTTTCCCGGTAATCCGTATTTGTG (site GACAAGACTCA) | 1.73 |
| GACAATACATGGACCGGTTTTCCCGGTAATCCGTATTTGGC (site GACAATACTGC) | 1.59 |
| GACACGCCATGGACCGGTTTTCCCGGTAATCCGTATTTGTA (site GACACGCCTTA) | 0.0256 |
| GACACGCCATGGACCGGTTTTCCCGGTAATCCGTATTTGTA (site GCCACGCCTTA) | 0.176 |
| GACACGCCATGGACCGGTTTTCCCGGTAATCCGTATTTGTA (site GGCACGCCTTA) | 0.00761 |
| GACACGCCATGGACCGGTTTTCCCGGTAATCCGTATTTGTA (site GTCACGCCTTA) | 0.0098 |
| GACACGCCATGGACCGGTTTTCCCGGTAATCCGTATTTGTG (site GACACGCCTCA) | 0.149 |
| GACAGACCATGGACCGGTTTTCCCGGTAATCCGTATTTGGT (site GACAAACCTAC) | 0 |
| GACAGACCATGGACCGGTTTTCCCGGTAATCCGTATTTGGT (site GACACACCTAC) | 0.00419 |
| GACAGACCATGGACCGGTTTTCCCGGTAATCCGTATTTGGT (site GACAGACCTAC) | 0.0145 |
| GACAGACCATGGACCGGTTTTCCCGGTAATCCGTATTTGGT (site GACATACCTAC) | 0 |
| GACATACCATGGACCGGTTTTCCCGGTAATCCGTATTTGGC (site GACATACCTGC) | 0 |
| GACCCATCATGGACCGGTTTTCCCGGTAATCCGTATTTGGA (site GACCCATCTTC) | 1.26 |
| GACCGGGCATGGACCGGTTTTCCCGGTAATCCGTATTTGAT (site GACCGGGCTAT) | 0.662 |
| GACCGTCCATGGACCGGTTTTCCCGGTAATCCGTATTTGAT (site AACCGTCCTAT) | 0 |
| GACCGTCCATGGACCGGTTTTCCCGGTAATCCGTATTTGAT (site CACCGTCCTAT) | 0.00334 |
| GACCGTCCATGGACCGGTTTTCCCGGTAATCCGTATTTGAT (site GACCGTCCTAT) | 0.0192 |
| GACCGTCCATGGACCGGTTTTCCCGGTAATCCGTATTTGAT (site TACCGTCCTAT) | 0.0517 |
| GACCTCACATGGACCGGTTTTCCCGGTAATCCGTATTTGTA (site GACCTCACTTA) | 0.0239 |

| Sequence | recombinant UMI read abundance (log10) |
| --- | --- |
| GACGAAACATGGACCGGTTTTCCCGGTAATCCGTATTTGTA (site GACGAAACTTA) | 2.54 |
| GACGAAGCATGGACCGGTTTTCCCGGTAATCCGTATTTGCT (site GACGAAGCTAG) | 2.11 |
| GACGCCACATGGACCGGTTTTCCCGGTAATCCGTATTTGAA (site GACGCCACTTT) | 0.827 |
| GACGCCGCATGGACCGGTTTTCCCGGTAATCCGTATTTGAG (site GACGCCGCTCT) | 0.349 |
| GACGCTACATGGACCGGTTTTCCCGGTAATCCGTATTTGCA (site GACGCTACTTG) | 1.36 |
| GACTATCCATGGACCGGTTTTCCCGGTAATCCGTATTTGCT (site GAATATCCTAG) | 0.00525 |
| GACTATCCATGGACCGGTTTTCCCGGTAATCCGTATTTGCT (site GACTATCCTAG) | 1.29 |
| GACTATCCATGGACCGGTTTTCCCGGTAATCCGTATTTGCT (site GAGTATCCTAG) | 0 |
| GACTATCCATGGACCGGTTTTCCCGGTAATCCGTATTTGCT (site GATTATCCTAG) | 0 |
| GACTCACCATGGACCGGTTTTCCCGGTAATCCGTATTTGAC (site GACTCACCTGT) | 0 |
| GACTCCCCATGGACCGGTTTTCCCGGTAATCCGTATTTGCA (site GACTCCCCTTG) | 1.3 |
| GACTCCTCATGGACCGGTTTTCCCGGTAATCCGTATTTGCC (site AACTCCTCTGG) | 1.71 |
| GACTCCTCATGGACCGGTTTTCCCGGTAATCCGTATTTGCC (site CACTCCTCTGG) | 1.86 |
| GACTCCTCATGGACCGGTTTTCCCGGTAATCCGTATTTGCC (site GACTCCTCTGG) | 2.02 |
| GACTCCTCATGGACCGGTTTTCCCGGTAATCCGTATTTGCC (site TACTCCTCTGG) | 2.07 |
| GACTTAGCATGGACCGGTTTTCCCGGTAATCCGTATTTGTG (site GACTTAGCTCA) | 0.251 |
| GACTTGACATGGACCGGTTTTCCCGGTAATCCGTATTTGCT (site AACTTGACTAG) | 1.3 |
| GACTTGACATGGACCGGTTTTCCCGGTAATCCGTATTTGCT (site CACTTGACTAG) | 0.596 |
| GACTTGACATGGACCGGTTTTCCCGGTAATCCGTATTTGCT (site GACTTGACTAG) | 0.984 |
| GACTTGACATGGACCGGTTTTCCCGGTAATCCGTATTTGCT (site TACTTGACTAG) | 0.923 |
| GACTTGGCATGGACCGGTTTTCCCGGTAATCCGTATTTGGA (site AACTTGGCTTC) | 0.227 |
| GACTTGGCATGGACCGGTTTTCCCGGTAATCCGTATTTGGA (site CACTTGGCTTC) | 0.579 |
| GACTTGGCATGGACCGGTTTTCCCGGTAATCCGTATTTGGA (site GACTTGGCTTC) | 0.654 |
| GACTTGGCATGGACCGGTTTTCCCGGTAATCCGTATTTGGA (site TACTTGGCTTC) | 0.28 |
| GACTTTCCATGGACCGGTTTTCCCGGTAATCCGTATTTGAC (site GACTTTCCTGT) | 0.0655 |
